Source: BindingDB's records for doi:10.7270/Q269721H (Nmmlsc, 2010)

Target: Guanine nucleotide-binding protein G(o) subunit alpha (Homo sapiens, UniProt P09471)
Assay: modulators of RGS7 binding to Galphao – multiplexed assay, additional SAR round, SAR follow-up (AID 2826)

Guanine nucleotide-binding protein G(o) subunit alpha, sequence (P09471 whole entry): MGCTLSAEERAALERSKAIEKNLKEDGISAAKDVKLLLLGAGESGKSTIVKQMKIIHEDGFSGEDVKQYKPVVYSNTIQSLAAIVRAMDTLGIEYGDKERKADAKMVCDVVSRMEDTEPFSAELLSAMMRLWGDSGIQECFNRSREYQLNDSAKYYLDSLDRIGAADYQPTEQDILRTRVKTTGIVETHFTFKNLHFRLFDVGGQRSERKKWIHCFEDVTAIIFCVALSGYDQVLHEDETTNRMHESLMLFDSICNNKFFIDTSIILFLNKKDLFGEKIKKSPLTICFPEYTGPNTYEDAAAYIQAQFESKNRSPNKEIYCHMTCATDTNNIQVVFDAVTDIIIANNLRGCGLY

EC50, > 30 µM:
O=C(c1sc2cc([N+](=O)[O-])ccc2c1Cl)N1CCNCC1, O=C(NCCCN1CCOCC1)c1sc2cc([N+](=O)[O-])ccc2c1Cl [3-chloranyl-N-(3-morpholin-4-ylpropyl)-6-nitro-1-benzothiophene-2-carboxamide], Cc1ccc2c(Cl)c(C(=O)NCCCN3CCOCC3)sc2c1 [KUC103874N], NC(=O)c1sc2cc([N+](=O)[O-])ccc2c1Cl [KSC-1-100], O=C(NCCCn1ccnc1)c1sc2cc([N+](=O)[O-])ccc2c1Cl [3-chloro-N-[3-(1-imidazolyl)propyl]-6-nitro-1-benzothiophene-2-carboxamide]
